Data on 10 compounds can be found in patent US20120237566A1, “INHIBITING STOMACH-ACID RELEASE, REDUCING INFLAMMATION AND PREVENTING AND TREATING CANCER: COMPOSITIONS AND METHODS OF USE” (Venture Isles, LLC, priority 2011, published 2012).

Entries after “also recorded” stand apart in the source; their conditions may differ. Read-outs that look alike come from different tables or passages of the source.

One test deals with high-affinity K site (Homo sapiens, UniProt P20648). The note with it: cited from earlier work.
Test [1] concerns chambered bull frog gastric mucosa. The note with it: cited from earlier work.
For test [2], the system named is gastric microsomal K-pNPPase. Nature of the test: K-pNPPase activity of gastric microsomes. Type of test: biochemical.
In the next test the test system is Na—K-ATPase. The conditions noted are these: cited from earlier work.
In the next test the target is H, K-ATPase (Homo sapiens, UniProt P20648). The conditions noted are these: cited from earlier work.
The test system of the next test is mitosis. The note with it: cited from earlier work.
Test [3] has as its system neutrophil-mediated angiogenesis. The note with it: oral; in vivo; cited from earlier work.
The target in a further test is T1, neutrophil elastase (Homo sapiens, UniProt P08246).
T1 sequence (P08246 30-267): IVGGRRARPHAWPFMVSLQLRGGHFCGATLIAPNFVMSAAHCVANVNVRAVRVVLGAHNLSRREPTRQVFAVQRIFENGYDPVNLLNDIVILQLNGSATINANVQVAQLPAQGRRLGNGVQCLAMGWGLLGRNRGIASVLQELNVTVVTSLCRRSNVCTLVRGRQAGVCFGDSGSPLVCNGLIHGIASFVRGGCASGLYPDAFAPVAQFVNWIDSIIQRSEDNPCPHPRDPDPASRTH
The conditions noted are these: cited from earlier work.

The test system of the next test is activated neutrophils. The conditions noted are these: micromolar EGCG; cited from earlier work.
A further test concerns neutrophil chemotaxis. The conditions noted are these: in vitro; cited from earlier work.
Test [4] concerns chambered bull frog gastric mucosa. Nature of the test: acid secretion by chambered bull frog gastric mucosa in vitro. Type of test: cell-based. An excerpt: The method further comprises Step 2 that includes testing to determine if a candidate molecule inhibits the H, K-ATPase activity (inhibits the pump turnover), then test in an appropriate animal model(s) for the antisecretary activity and select the best candidates for clinical trial, as in Step 6.
(§1) Heavy-metal ions generally comprise Ba, Ca, and Zn and show synergistic inhibition when used in combination with thiocyanate and isothiocyanate. Zinc (Zn) inhibits acid secretion by a mechanism quite different than Barium and Calcium.
However, SCN and ZN include different modes of operation.

Test [5] concerns gastric H, K-ATPase. Nature of the test: H, K-ATPase activity of isolated gastric microsomal vesicles. Type of test: biochemical.
From the text: as §1

In another test the test system is lipoxygenase. The note with it: cited from earlier work.
Test [6] deals with AP-1 mediated transcription. The conditions noted are these: in vitro; cited from earlier work.
The subject of test [7] is inducible nitric oxide synthase (iNOS). The conditions noted are these: activated macrophages; cited from earlier work.
Test [8] relates to gastric H, K-ATPase. The note with it: cited from earlier work.
In test [9] the target is highly purified H, K-ATPase (Homo sapiens, UniProt P20648). The conditions noted are these: cited from earlier work.
Chain of highly purified H, K-ATPase (P20648 whole entry): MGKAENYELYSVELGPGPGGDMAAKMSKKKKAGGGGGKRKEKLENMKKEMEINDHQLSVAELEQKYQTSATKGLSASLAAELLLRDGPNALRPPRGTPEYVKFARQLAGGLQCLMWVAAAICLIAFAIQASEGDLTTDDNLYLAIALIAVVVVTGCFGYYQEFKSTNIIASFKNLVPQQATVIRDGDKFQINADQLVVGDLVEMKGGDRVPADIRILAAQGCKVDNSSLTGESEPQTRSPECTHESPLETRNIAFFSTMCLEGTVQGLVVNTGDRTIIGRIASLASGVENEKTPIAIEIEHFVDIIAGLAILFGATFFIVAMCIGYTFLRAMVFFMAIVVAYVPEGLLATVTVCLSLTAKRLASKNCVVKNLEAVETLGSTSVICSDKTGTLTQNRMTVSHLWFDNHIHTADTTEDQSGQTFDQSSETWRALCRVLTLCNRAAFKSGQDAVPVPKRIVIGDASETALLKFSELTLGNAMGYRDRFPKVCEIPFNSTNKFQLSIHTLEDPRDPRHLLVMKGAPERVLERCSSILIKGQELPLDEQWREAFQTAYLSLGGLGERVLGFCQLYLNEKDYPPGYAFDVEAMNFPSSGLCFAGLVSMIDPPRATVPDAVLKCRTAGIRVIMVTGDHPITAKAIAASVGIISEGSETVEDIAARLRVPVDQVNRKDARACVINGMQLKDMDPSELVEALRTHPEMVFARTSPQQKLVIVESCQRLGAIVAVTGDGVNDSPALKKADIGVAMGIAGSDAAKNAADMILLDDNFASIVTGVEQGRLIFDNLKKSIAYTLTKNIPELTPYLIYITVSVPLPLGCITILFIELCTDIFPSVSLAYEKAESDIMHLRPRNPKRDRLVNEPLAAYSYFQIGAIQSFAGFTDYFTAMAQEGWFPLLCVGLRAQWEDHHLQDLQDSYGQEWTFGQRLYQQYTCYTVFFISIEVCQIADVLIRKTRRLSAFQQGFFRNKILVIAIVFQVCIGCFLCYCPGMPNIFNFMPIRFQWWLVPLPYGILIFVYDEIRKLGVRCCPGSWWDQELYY
Chain of highly purified H, K-ATPase (P51164 whole entry partner): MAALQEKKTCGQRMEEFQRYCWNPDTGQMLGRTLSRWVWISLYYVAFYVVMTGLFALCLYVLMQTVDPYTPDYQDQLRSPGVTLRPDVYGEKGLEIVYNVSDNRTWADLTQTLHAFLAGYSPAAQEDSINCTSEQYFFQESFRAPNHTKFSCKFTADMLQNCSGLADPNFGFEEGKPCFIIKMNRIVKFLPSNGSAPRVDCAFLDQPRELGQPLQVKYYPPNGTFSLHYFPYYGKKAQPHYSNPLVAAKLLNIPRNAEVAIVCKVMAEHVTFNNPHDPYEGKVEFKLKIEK

Chain of high-affinity K site (P20648 whole entry): as the sequence (P20648 whole entry) above
Chain of high-affinity K site (P51164 whole entry partner): as the sequence (P51164 whole entry partner) above
Chain of H, K-ATPase (P20648 whole entry): as the sequence (P20648 whole entry) above
Chain of H, K-ATPase (P51164 whole entry partner): as the sequence (P51164 whole entry partner) above

On to “2-[3,4]-dichlorophenylamino quinolizium bromide [nolinium bromide]”, for which, on high-affinity K site, the “interaction with the high-affinity K site” value is reported as “interacts competitively”.

In the case of `[Ba+2]` [Barium], the “reversal of inhibition of acid secretion by higher concentration of K” value in [1] was “competitively reverses”. Also, the acid secretion result is on record as “blocks the acid secretion” in [1] (higher concentration (above 1 mM)) and “slight stimulation” in test [1] (less than 1 mM concentration). For the same compound, the “K-pNPPase activity, antagonism with K” value in test [2] is listed as “parallel Ba/K antagonism”.

As for `Clc1ccccc1C(c1ccccc1)(c1ccccc1)n1ccnc1` [CLT, clotrimazole], in the test on Na—K-ATPase, the “inhibition of Na—K-ATPase” value is “potent inhibitors”. Further, the “inhibition of H, K-ATPase” value at H, K-ATPase is on record as “potent inhibitors”.

As for `[Ca+2]` [Calcium], in [2], the “response of K-pNPPase inhibition to higher K” value was “nonresponsive to higher K”. Moreover, the K-pNPPase activity result in [2] (concentrations comparable to Ba) is “strong inhibition”.

In the case of `N#CSc1ccc(Cl)cc1Cl` [DCPT, 2,4-dichlorophenyl thiocyanate], in the test with mitosis, the “anti-proliferative / antimitotic activity” value is given as “anti-proliferative property; also recorded: antimitotic”.

On to `O=C(O[C@@H]1Cc2c(O)cc(O)cc2O[C@@H]1c1cc(O)c(O)c(O)c1)c1cc(O)c(O)c(O)c1` [EGCG, (−)epigallocatechin-3-gallate], for which the neutrophil-mediated angiogenesis entry in test [3] is recorded as “block”. Further, at neutrophil elastase, the neutrophil elastase inhibition entry is “strongly inhibits”. Also, in the test on activated neutrophils, the “apoptosis of activated neutrophils” value was “inhibits” and the “reactive oxygen species activity” value is reported as “represses”. Besides, the chemokine-induced neutrophil chemotaxis result with neutrophil chemotaxis is given as “dramatically inhibits”.

Consider `Cc1nc2c(OCc3ccccc3)cccn2c1CC#N` [SCH 28080], for which the “interaction with the high-affinity K site” value on high-affinity K site is listed as “interacts competitively”.

Turning to `[Zn+2]` [Zn, Zinc], in test [4], the “inhibition of gastric-acid secretion” value is on record as “potent inhibitors”, the “reversal of inhibition of acid secretion by beta-mercaptoehanol (βME) in the secretary solution” value is “could be reversed” and the “reversal of inhibition of gastric acid secretion by raising K-salt in the bathing medium” value was “totally ineffective”. Also, the “restoration of acid secretion after Zn inhibition” value in test [4] (1 mM beta-mercapto-ehanol (βME)) was “promptly restored”. In addition, the acid secretion result in test [4] (at a concentration of 60 added to the secretary solution, within 15 min) was “reduces the acid secretion to near zero”. In addition, the “activity of the isolated pNPPase” value in [2] was “strongly inhibited”. Besides, the K-pNPPase activity result in test [2] (20 μM) is “abolishes”. The “activity of the isolated H, K-ATPase” value in the test on gastric H, K-ATPase [5] was “strongly inhibited”. In addition, the “H, K-ATPase activity” value in the test on gastric H, K-ATPase [5] (2 μM) is “abolished”. In addition, the “H, K-ATPase activity” value with gastric H, K-ATPase [5] (2 μM, listed as Zinc) was “abolishes”. In addition, the “sensitivity of H, K-ATPase activity relative to pNPPase activity” value in the test on gastric H, K-ATPase [5] (inhibition by Zn) is recorded as “ten times more sensitive”.

Regarding `COc1cc(C=CC(=O)CC(=O)C=Cc2ccc(O)c(OC)c2)ccc1O` [curcumin, 1,7-bis(4-hydroxy-3-methoxyphenyl)-1,6-heptadiene-3,5-dione], the lipoxygenase inhibition result in the test with lipoxygenase is on record as “inhibits”. Further, the “AP-1 mediated transcription related to cytokine regulation” value in test [6] is “inhibits”. In addition, in test [7], the “inducible nitric oxide synthase (iNOS)” value is given as “suppresses”.

For the compound `N#C[S-].[Na+]` [thiocyanate, Sodium thiocyanate], in test [4], the “inhibition of gastric-acid secretion” value is “potent inhibitors” and the “reversal of inhibition of gastric acid secretion by raising K-salt in the bathing medium” value is reported as “can be reversed”. For the same compound, the “H, K-ATPase mediated hydrolysis of ATP (ATPase activity)” value with gastric H, K-ATPase [8] is “does not inhibit”. For the same compound, in [9], the “binding to purified H, K-ATPase” value is reported as “specific binding” and the “displacement of bound SCN by K” value is reported as “could be displaced by K”. For the same compound, the “binding to purified H, K-ATPase” value in test [9] (listed as SCN) was “binding to a specific site”. Further, the “gastric H transport” value in [1] is recorded as “potent inhibitor”. In addition, the “reversal of K-pNPPase inhibition by high K” value in test [2] was “reversed by high K”. Moreover, the K-pNPPase activity result in [2] (10 mM) is “abolished”. In the test on gastric H, K-ATPase [5] (10 mM), the “H, K-ATPase activity” value is “totally ineffective”.
